Data reported in patent US20240325554A1, “METHODS FOR TREATING CANCER” (Bicycle Tx Limited, priority 2021, published 2024).
“Also recorded” adds a separate entry of the source. Numbered stars: 1 amine (or outer) side, 2 acyl side, 3 side chain; on linkers, the order of the positions; unused ones are H or OH. Bridge positions count the residues as written; N and C are the ends. Square brackets hold non-standard residues; d marks the D form. I, II: the chains in the order shown. X2 = O=C(CCOCCOCCOCCN(CCOCCOCCOCCn1cc(CCC(=O)[*:2])nn1)CCOCCOCCOCCn1cc(CCC(=O)[*:3])nn1)[*:1]; TATA = O=C(CC[*:1])N1CN(C(=O)CC[*:2])CN(C(=O)CC[*:3])C1; X1 = CC(C)[C@H](N[*:1])C(=O)C[C@@H](CC(N)=O)C(=O)[*:2]; X3 = O=C(CC[*:1])N1CN(C(=O)CC[*:3])CN(C(=O)C[*:2])C1; d1Nal = N[C@H](Cc1cccc2ccccc12)C(=O)O; Hyp = O=C(O)[C@@H]1C[C@@H](O)CN1; hArg = N=C(N)NCCCC[C@H](N)C(=O)O; tBuAla = CC(C)(C)C[C@H](N)C(=O)O; Nle = CCCC[C@H](N)C(=O)O

Columns and labels:
CD137 [1] = biological target: T1, CD137 (Homo sapiens, UniProt Q07011); assay: CD137 activation; type: cell-based
CD137 [2] = biological target: T1, CD137; assay: IL-2 and IFN-γ cytokine secretion; type: cell-based
[3] = tested on: MC38 #13 (MC38 cells engineered to express Nectin-4) tumor tissue; assay: transcriptional (Nanostring) analysis of MC38 #13 tumors, study with BT7480; type: in vivo, huCD137-C57B/6J mice; details: 5 mg/kg i.v. 0 h, 24 h
Procedure: For the transcriptional and immunohistochemical (IHC) analyses, 6-8 week old female huCD137-C57B/6J mice (Biocytogen) mice were implanted subcutaneously with 1×10^6 MC38 #13 (MC38 cells engineered to express Nectin-4) cells. Mice were randomized into treatment groups when average tumor volumes reached around 255 mm^3 to receive vehicle, BT7480 (BCY00011863), non-binder BCY control BCY00012797 (BCY12797) or αCD137 antibody (urelumab analogue). BT7480 and its non-binding control were dosed intravenously at 5 mg/kg (in 25 mM histidine HCl, 10% sucrose, pH7; Vehicle) at 0 h and 24 h and urelumab analogue was dosed intraperitoneally at 2 mg/kg in PBS BIW (0 h, 72 h) dose and schedule. Tumors from BT7480-treated mice were harvested at 24 h (after the 0 h dose), 48 h (24 h after the last of 0 h and 24 h dose), 96 h (72 h after the last of 0 h and 24 h dose) and 144 h (120 h after the last of 0 h and 24 h dose). Tumors from αCD137-treated mice were harvested at 144 h after treatment initiation. Tumors from vehicle treated mice were harvested 24 h after the 0 h dose and at 144 h (120 h after the last of 0 h and 24 h dose). RNA was isolated from tumor tissues using RNAeasy kit (Qiagen) and transcriptional analysis was performed using nCounter Mouse PanCancer IO 360 panel (Nanostring) from 100 ng RNA/tumor. Data were analyzed using the nSolver Analysis Software with advanced analysis probe set ns_mm_io_360_v1.0 (Nanostring).

[4] = tested on: MC38 #13 cells (MC38 cells engineered to overexpress Nectin-4); assay: efficacy study BT7480 with anti-PD-1 and anti-Ctla-4, MC38 #13 tumor growth and survival; type: in vivo, C57BL/6J-huCD137 mice; details: i.p. BIW for 2 weeks, 1 mg/kg BT7480, 5 mg/kg antibodies, by day 33
Procedure: For tumor growth analysis, 6-8 week old female C57BL/6J-huCD137− mice (Biocytogen) were implanted subcutaneously with 1×10+e6 MC38 #13 cells (MC38 cells engineered to overexpress Nectin-4). Mice were randomized into treatment groups when average tumor volumes reached around 100 mm^3 and were treated intraperitoneally with vehicle (25 mM histidine, 10% sucrose, pH7), 1 mg/kg BT7480, 5 mg/kg anti-PD-1 (RMP 1-14), 5 mg/kg anti-Ctla-4 (9H10) or BT7480/anti-PD-1 and BT7480/anti-Ctla-4 combinations. Treatments were given twice weekly (BIW) for 2 weeks, and tumor growth was monitored by caliper measurements until day 33 after treatment initiation. Animals with >2000 mm^3 tumors were sacrificed as they had reached the Humane Endpoint.

MC38 tumor [5] = assay: MC38 tumor model in mice (BCY13272); type: in vivo
MC38 tumor tissue [6] = assay: transcriptional (Nanostring) profiling of MC38 tumors, study with BT7455; type: in vivo, huCD137-C57B/6J mice
Procedure: For the transcriptional profiling analyses of the effects of BT7455 in the immune tumor microenvironment, 6-8 week old female huCD137-C57B/6J mice (Biocytogen) mice were implanted subcutaneously with 1×10+E6 MC38 cells. Mice were randomized into treatment groups when average tumor volumes reached around 350 mm^3 to receive vehicle, BT7455, αCD137 antibody (urelumab analogue) or αPD-1 antibody. BT7455 was dosed intravenously at 8 mg/kg (in 25 mM histidine HCl, 10% sucrose, pH7; Vehicle) at 0 h and 24 h and urelumab analogue and αPD-1 antibody were dosed intraperitoneally at 2 mg/kg (urelumab analogue) or 10 mg/kg (αPD-1 antibody) in PBS at 0 h. Tumors from vehicle, BT7455, urelumab analogue and αPD-1 antibody-treated mice were harvested at 24 h, 48 h and 144 h after treatment initiation. RNA was isolated from tumor tissues using RNAeasy kit (Qiagen) and transcriptional analysis was performed using nCounter Mouse PanCancer IO 360 panel (Nanostring) from 100 ng RNA/tumor. Data were analyzed using the nSolver Analysis Software with advanced analysis probe set ns_mm_io_360 v1.0 (Nanostring).

MC38 tumor [7] = assay: efficacy study BCY12491 and Pembrolizumab combination, MC38 tumor growth; type: in vivo, huCD137/huPD-1-C57B/6J mice
Procedure: For tumor growth analysis, 6-8 week old female huCD137/huPD-1-C57B/6J mice (Biocytogen) mice were implanted subcutaneously with 1×10^6 MC38 cells. Mice were randomized into treatment groups when average tumor volumes reached around 92 mm^3 and were treated intravenously with vehicle (25 mM histidine, 10% sucrose, pH7), 5 mg/kg BCY12491 (0, 24 h) or intraperitoneally with 3 mg/kg anti-PD-1 antibody Pembrolizumab or a combination of BCY12491 and Pembrolizumab. Combination treatments were given with three different dosing schedules: BCY12491 and Pembrolizumab treatment initiating at the same time on day 0, BCY12491 treatment initiating on […] and Pembrolizumab treatment initiating on day 5, or Pembrolizumab treatment initiating of day 0 and BCY12491 treatment initiating on day 5. Treatments were given weekly for four doses and tumor growth was monitored by caliper measurements.

MC38 tumor tissue [8] = assay: transcriptional (Nanostring) analysis of MC38 tumors, profiling study with BCY12491; type: in vivo, huCD137-C57B/6J mice; details: Q3D for three doses, Day 6, vs vehicle, 15 mg/kg i.v. peptides, 2 mg/kg i.p. antibody
Procedure: (§1) For the transcriptional and immunohistochemical (IHC) analyses, 6-8 week old female huCD137-C57B/6J mice (Biocytogen) mice were implanted subcutaneously with 1×10^6 MC38 cells. Mice were randomized into treatment groups when average tumor volumes reached around 240 mm^3 and were treated intravenously with vehicle (25 mM histidine, 10% sucrose, pH7), 15 mg/kg BCY12491, 15 mg/kg BCY13626 (non-binding control) or intraperitoneally with 2 mg/kg anti-CD137 antibody urelumab. Treatments were given Q3D for three doses, tumor growth was monitored by caliper measurements and tumor tissues were harvested 1 hour after the last dose on Day 6. Part of the tumor tissue was used for RNA isolation for transcriptional analysis and a part of the tumor tissue was used for formalin-fixed paraffin embedded (FFPE) sample preparation for IHC analysis. RNA was isolated from tumor tissues using RNAeasy kit (Qiagen) and transcriptional analysis was performed using nCounter Mouse PanCancer IO 360 panel (Nanostring) from 100 ng RNA/tumor. Data were analyzed using the nSolver Analysis Software with advanced analysis probe set ns_mm_io_360_v1.0 (Nanostring). CD8+ tumor infiltrating cells were stained in FFPE tissue sections using anti-mouse CD8 antibody (Abcam, #ab217344) and Ventana Discovery OmniMap anti Rabbit-HRP Kit (Ventana #760 4310).

MC38 tumor tissue [9] = assay: IHC analysis for CD8+ cells in MC38 tumor tissue, study with BCY12491; type: in vivo, huCD137-C57B/6J mice; details: Q3D for three doses, Day 6, vs vehicle or non-binder
Procedure: as §1

T1 sequence (Q07011 24-255): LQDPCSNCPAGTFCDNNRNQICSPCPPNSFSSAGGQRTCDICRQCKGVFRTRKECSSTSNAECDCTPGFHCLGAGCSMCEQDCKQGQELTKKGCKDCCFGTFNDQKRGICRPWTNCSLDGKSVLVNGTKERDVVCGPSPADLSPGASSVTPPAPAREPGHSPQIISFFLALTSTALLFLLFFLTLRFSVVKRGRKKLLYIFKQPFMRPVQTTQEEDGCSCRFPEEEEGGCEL

CCCC[C@@H]1NC(=O)[C@H](Cc2ccc(O)cc2)NC(=O)[C@@H]2CCCN2C(=O)[C@H](CC(=O)O)NC(=O)[C@H](C)NC(=O)[C@H](Cc2ccccc2)NC(=O)[C@@H]2CSCCC(=O)N3CN(CN(C3)C(=O)CCSC[C@@H](C(=O)N[C@@H](C)C(N)=O)NC1=O)C(=O)CCSC[C@H](NC(C)=O)C(=O)N[C@@H](CC(C)(C)C)C(=O)N1CCC[C@H]1C(=O)N[C@@H](CCC(=O)O)C(=O)N[C@H](CCCCNC(=O)CCc1cn(CCOCCOCCOCCN(CCOCCOCCOCCC(=O)N[C@H]3CSCCC(=O)N4CN5CN(C4)C(=O)CCSC[C@H](NC(=O)[C@@H](CC(=O)O)NC(=O)[C@H](Cc4cccc6ccccc46)NC(=O)[C@@H]4CCCN4C3=O)C(=O)N[C@@H](CCSC)C(=O)N[C@@H](CCCCNC(=N)N)C(=O)N[C@@H](CC(=O)O)C(=O)N[C@@H](Cc3c[nH]c4ccccc34)C(=O)N[C@@H](CO)C(=O)N[C@@H]([C@@H](C)O)C(=O)N3CCC[C@H]3C(=O)N3C[C@H](O)C[C@H]3C(=O)N[C@@H](Cc3c[nH]c4ccccc34)C(=O)N[C@H](C(N)=O)CSCCC5=O)CCOCCOCCOCCn3cc(CCC(=O)NCCCC[C@H]4NC(=O)[C@H](CCC(=O)O)NC(=O)[C@@H]5CCCN5C(=O)[C@H](CC(C)(C)C)NC(=O)[C@@H](NC(C)=O)CSCCC(=O)N5CN6CN(C5)C(=O)CCSC[C@H](NC(=O)[C@H](Cc5ccc(O)cc5)NC(=O)[C@@H]5CCCN5C4=O)C(=O)N[C@@H](Cc4ccccc4)C(=O)N[C@@H](C)C(=O)N[C@@H](CC(=O)O)C(=O)N4CCC[C@H]4C(=O)N[C@@H](Cc4ccc(O)cc4)C(=O)N[C@@H](CCCC)C(=O)N[C@H](C(=O)N[C@@H](C)C(N)=O)CSCCC6=O)nn3)nn1)C(=O)N1CCC[C@H]1C(=O)N[C@@H](Cc1ccc(O)cc1)C(=O)N2 [BT7480]
CD137 activation (CD137 [1]): strong CD137 activation | IL-2 and IFN-γ cytokine secretion (CD137 [2]): robust IL-2 and IFN-γ cytokine secretion | mRNA for T cell chemotactic chemokines/cytokines such as Ccl1, Ccl17 and Ccl24 [3]: significant early (24 hour timepoint) increase | mRNAs for immune checkpoints (Ctla4, Pdcd1, Cd274, Lag3, Havcr2, Pdcd1lg2, Tigit) ([3]; 5 mg/kg): increase in several immune checkpoint mRNAs; also recorded: trend to increase or significant increase | cytotoxic cell score in tumor tissue ([3]; 144 h vs vehicle at 144 h): significantly increased | Macrophage Cell Score in tumor tissue ([3]; by 48 h vs 24 h vehicle readout): significant increase | rate of complete responses (CRs) [4]: 0/8

I: A[hArg]DC[Hyp]L[X1]PLCLEP[d1Nal]WTC-NH2 / II: Ac-C[tBuAla]PE[dK]PYCFADPY[Nle]CA-NH2 / III: Ac-C[tBuAla]PE[dK]PYCFADPY[Nle]CA-NH2 (linker I:4-I:10-I:17, II:1-II:8-II:15 via TATA; linker I:N-II:5-III:5 via X2; linker III:1-III:8-III:15 via X3) [BT7455]
antitumor effect (MC38 tumor [5]): significant antitumor effect | mRNAs for immune checkpoints (Ctla4, Pdcd1, Cd274, Lag3, Havcr2, Pdcd1lg2, Tigit) (MC38 tumor tissue [6]; 8 mg/kg i.v. 0 h, 24 h): increase in several immune checkpoint mRNAs; also recorded: significant increase | mRNA for T cell chemotactic chemokines/cytokines such as Ccl1, Ccl17 and Ccl24 (MC38 tumor tissue [6]; 8 mg/kg i.v., 24-48 hour timepoint): significant early (24-48 hour timepoint) increase | cytotoxic cell score in tumor tissue (MC38 tumor tissue [6]; 8 mg/kg i.v., vs vehicle or anti-PD-1 or anti-CD137 treated mice): significant increase | modulation of gene sets (signature scores) (MC38 tumor tissue [6]; 48 h after treatment initiation, 8 mg/kg BT7455, 10 mg/kg anti-PD-1, 2 mg/kg urelumab analogue): significant early (48 hours) modulation of several gene sets

Pembrolizumab: anti-PD-1 antibody Pembrolizumab
anti-tumor activity compared to vehicle control (MC38 tumor [7]; 5 mg/kg BCY12491 QW (0, 24 h), 3 mg/kg Pembrolizumab QW, combination both from day 0, D18, p<0.0001): significantly affected the tumor growth; also recorded: significant anti-tumor activity | complete responses (MC38 tumor [7]; monotherapy treatment cohorts, 5 mg/kg BCY12491 (0, 24 h) or 3 mg/kg Pembrolizumab weekly): 3/10

anti-CD137 antibody: anti-CD137 antibody urelumab
T cell score in tumor tissue (MC38 tumor tissue [8]): increased significantly | cytotoxic cell score in tumor tissue (MC38 tumor tissue [8]): increased significantly | infiltration of CD8+ cells in tumors (IHC) (MC38 tumor tissue [9]): Some increase of CD8+ cell infiltration
